According to US4236008A, “Fluorination of precursors for fluorine analogs of hydrocodone and oxycodone” (priority 1978, dated 1980):
Structures can show the parent of a compound that is named as a salt. Where two headings read alike, the source gives them in different places.

Key:
[1] = system: characteristic stretching or writhing syndrome induced by phenylquinone; experiment: standard phenylquinone writhing test (PQW), analgesic activity, oral; settings: Mus musculus
Description: A test compound suspended in 1% methylcellulose was given orally to fasted (17-21 hours) female white mice, 5-20 animals per double blind test. Aqueous (0.01% phenyl-p-benzoquinone) phenylquinone was injected intraperitoneally at 24 minutes later using 0.20 ml per mouse. […] This is reported as PQW ED50 in the table below.

[2] = system: morphine-induced Straub tail; experiment: narcotic antagonist (anti-Straub tail) test, prevention of morphine-induced Straub tail; settings: Mus musculus, ip, 10 min, read-out: MOUSE ED50 VALUES: ANTI-STRAUB TAIL
Description: The narcotic antagonist (anti-Straub tail) property of the compounds is estimated by their ability to prevent morphine-induced Straub tail in mice. […] Prevention of the induction of a 90° Straub tail for minutes after the morphine sulfate injection is considered to indicate narcotic antagonism in the compound tested.

in vivo = settings: mouse, sc, 135 mg/kg
Description: A positive Straub tail response was recorded if a tail was erected for 3 seconds at any time within 25 minutes after dosing. A quantal Straub tail ED50 was calculated by the moving average method and is an indication of physical dependence.

[3] = read-out: MOUSE ED50 VALUES: PQW
[4] = 0.5 h, read-out: MOUSE ED50 VALUES: PQW (peak time value)

Row | Structure (SMILES) | ED50 [1, 3] | ED50 [2] | ED50 [1, 4] | ED50 (in vivo)
1 | COc1ccc2c3c1OC1C(F)C=CC4C(C2)N(C)CCC341 (stereo not drawn) [Ayer 3,137,701, reference compound] | 32 mg/kg | > 162 mg/kg |  | 
2 | COc1ccc2c3c1O[C@H]1[C@@H](O)C=C[C@H]4[C@@H](C2)N(C)CC[C@@]341 [Codeine PO4, reference compound] |  | > 140 mg/kg | 4.7 mg/kg | 
3 | COc1ccc2c3c1O[C@H]1C(F)=CC[C@H]4[C@@H](C2)N(C)CC[C@]314 [Compound 2, 17-Methyl-6,7-didehydro-4,5-epoxy-6-fluoro-3-methoxymorphinan Hydrochloride] | 8 mg/kg | 94 mg/kg |  | 26 mg/kg
4 | COc1ccc2c3c1O[C@H]1C(F)(F)CC[C@H]4[C@@H](C2)N(C)CC[C@@]341 [Compound 4, 17-Methyl-4,5-epoxy-6,6-difluoro-3-methoxymorphinan Hydrochloride] | 2.7 mg/kg | > 81 mg/kg |  | 10 mg/kg
5 | COc1ccc2c3c1O[C@H]1C(F)(F)CC[C@H]4[C@@H](C2)N(CC2CCC2)CC[C@@]341 [Compound 9, 17-Cyclobutylmethyl-4,5-epoxy-6,6-difluoro-3-methoxymorphinan Hydrochloride] |  | 4.1 mg/kg | 2.9 mg/kg | > 135 mg/kg
6 | COc1ccc2c3c1O[C@H]1C(F)(F)CC[C@@]4(F)[C@@H](C2)N(CC2CC2)CC[C@]314 [Compound 13, 17-Cyclopropylmethyl-4,5-epoxy-6,6,14β-trifluoro-3-methoxymorphinan H ydrochloride] | > 135 mg/kg |  |  | > 135 mg/kg
7 | COc1ccc2c3c1O[C@H]1C(F)(F)CC[C@@]4(F)[C@@H](C2)N(CC2CCC2)CC[C@]314.Cl [Compound 17, 17-Cyclobutylmethyl-4,5α-epoxy-6,6,14β-trifluoro-3-methoxymorphinan Hydrochloride] | > 135 mg/kg | 17 mg/kg |  | > 135 mg/kg
8 | COc1ccc2c3c1O[C@H]1C(F)(F)CC[C@H]4[C@@H](C2)N(CC2CC2)CC[C@@]341 [Compound 22, 17-Cyclopropylmethyl-4,5-epoxy-6,6-difluoro-3-methoxymorphinan] |  | 0.15 mg/kg | 2.2 mg/kg | > 54 mg/kg
9 | COc1ccc2c3c1O[C@H]1C(F)=CC[C@H]4[C@@H](C2)N(CC2CC2)CC[C@]314 [Compound 23, 17-Cyclopropylmethyl-6,7-didehydro-4,5-epoxy-6-fluoro-3-methoxymorphinan] | 18 mg/kg | 0.21 mg/kg |  | > 135 mg/kg
10 | COc1ccc2c3c1O[C@H]1C(F)(F)CC[C@@]4(O)[C@@H](C2)N(CC2CCC2)CC[C@]314.Cl [Compound 30, 17-Cyclobutylmethyl-4,5α-epoxy-6,6-difluoro-14β-hydroxy-3-methoxymorphinan Hydrochloride] | 26 mg/kg | 10.8 mg/kg |  | 
11 | CN1CC[C@]23c4c5ccc(O)c4O[C@H]2[C@@H](O)C=C[C@H]3[C@H]1C5 [Morphine SO4, reference compound] |  |  | 3 mg/kg | 
